Bridge positions count the residues as written; N and C are the ends. Square brackets hold non-standard residues; d marks the D form. Peptide text beside a SMILES is read from it. * marks the point of attachment. FITC = O=C1OC2(c3ccc(O)cc3Oc3cc(O)ccc32)c2ccc(NC(=S)*)cc21; βAla = NCCC(=O)O
What was measured:
Keap1 = molecular target: T1, Keap1 (Homo sapiens, UniProt Q14145); experiment: Surface plasmon resonance (SPR) assay, affinity of peptides to Keap1; format: binding; conditions: Biacore T200, 25 °C, biotinylated Keap1 on CAP chip, peptide 25-1600 nM, flow 30 μL/min, multi-cycle affinity method, oxidized, HPLC-purified peptide, read-out: equilibrium dissociation constant (KD) toward Keap1
T1 construct: another target (the Kelch domain of Keap1)
Description: Surface plasmon resonance (SPR) assay
The affinity of peptides to Keap1 was measured using Biacore T200 (GE healthcare) at 25℃. At first, Keap1 was linked to a Biacore CAP chip via the interaction of biotin and avidin (Biotinylation of Keap1 occurs through the preceding reaction, Biacore CAP chip was performed through a Biotin CAPture Kit (GE healthcare)). Then, different concentrations of peptides were used in experiment (25, 50, 100, 200, 400, 800, 1600 nM) at a flow rate of 30 μL/min. The binding affinity and kinetics constants were quanti-fied by a multi-cycle affinity method.
NMR samples were dissolved in 80% perdeuterated acetonitrile and 20% H2O for drp1, 75% perdeu-terated acetonitrile and […] for drp2-a, 60% perdeuterated acetonitrile and 40% H2O for drp8, 50% perdeuterated acetonitrile and 50% H2O for drp3 and drp6, 40% perdeuterated acetonitrile and 60% H2O for drp2-b and drp4 (The solution conditions depend on the dispersion of cross -peaks). All of NMR samples were prepared in a final concentration of about 1 mM. […] Two dimensional (2D) 1H, 15N/13C HSQC spectra were recorded to obtain chemical shifts of heavy atoms in backbone and side-chains. […]
The backbone dihedral angle restraints were obtained using programs TALOS -N based on chemical shifts of backbone resonances6. […] The structures were visualized in PyMol, and the quality of structures was analyzed using PROCHECK 9. […]

MDM2 = experiment: Fluorescence polarization (FP) competition assay, binding to MDM2; conditions: FP competition assay described previously (ref 32 method); oxidized products; Fig. S3
Excerpt: The most abundantly enriched sequences from both selections were then synthesized, and their oxidative folding in redox buffers were examined using HPLC. Oxidation of the MDM2-binding peptide (drp2) yields two products (drp2-a and drp2-b) in a ratio of ∼1 : 3 (Fig. 2c). […] The structures of the two products were then characterized using NMR (Fig. 2c; PDB 7W8O and 7W8R). Both products can maintain a stable, but different 3D structure with a conserved α-helix responsible for target recognition, corresponding to the parallel and antiparallel dimeric pairing of the two CPPC motifs in the peptide (drp2-a and drp2-b, respectively). […]
min incubation at room temperature, the fluorescence anisotropies were measured using a plate reader (Eex= 485 nm, Eem=535 nm). All of the measurements were recorded in triplicate. In the fluorescence polarization assay s measuring the binding of reduced FITC-drp8 to CD28 and the binding of oxidized FITC-drp8 to CTLA-4, the fluorescence anisotrop ies were recorded in the same way as described above.
Dissociation constants ( KD) were determined by nonlinear regression analysis of anisotrop ies versus the concentrations of the protein using the following equation: […]
(b) Competition fluorescence polarization assay. The binding of drp8 to CD28 was measured by adding dilutions of drp8 to premixed oxidized FITC-drp8 and CD28 in PBS (pH 7.4). […]

[1] = Circular dichroism (CD) thermal denaturation; format: physicochemical; conditions: CD 190-260 nm, 61 μM in pure water, scans at 25, 45, 75 and 95 °C; only a small decline of CD signals up to 95 °C; Fig. S7
Excerpt: (§1) from 2% agarose gel (containing 0.005% v/v of 4S Red Plus Nucleic Acid Stain) used a commercial agarose gel purification kit (E.Z.N.A® Gel Extraction Kit, OMEGA BIO-TEK, USA). Then, Novogene Co., Ltd. was commissioned for sequence identification. The data were processed and analyzed using […]
(§2) All peptides were synthesized on a CEM Liberty Blue automated microwave peptide synthesizer by standard Fmoc solid-phase chemistry on a Rink Amide MBHA resin (0.025 mmol scale). Coupling reac-tions were performed with a Fmoc-AA-OH (5 eq., 0.2 M solution in DMF), DIC (5 eq., 0.25 M solution in DMF) and Oxyma Pure (5 eq., 1.0 M solution in DMF). Fmoc groups were removed using a 20% (v/v) solution of piperidine in DMF. […]
(§3) In a typical experiment, reduced peptide (50 μM) was dissolved in 100 mM phosphate buffer (500 μL, pH 7.4) containing 6 M Gu·HCl, 0.5 mM GSSG and 10% DMSO (v/v). […] After analyzed by MALDI-TOF MS, the oxidized peptide was purified and lyophilized to yield […]
(§4) Circular dichroism (CD) wavelength and temperature scans were recorded for thermal denaturation experiments. […] Wavelength scans from 190 nm to 260 nm were recorded at 25℃, 45℃, 75℃ and 95℃, and temperature were carried out at a heating rate of 5℃/min in 1 mm path length cuvettes.
(§5) Fluorescence polarization (FP) assay
(§6) (a) Fluorescence polarization binding assay. […]

CD28 = molecular target: T2, CD28 (Homo sapiens, UniProt P10747); experiment: Fluorescence polarization binding assay (saturation binding of FITC-drp8 to CD28); conditions: FP assay, same way as for oxidized FITC-drp8
T2 construct: purchased Sino Biological 11524-HCCH
Excerpt: as §1
as §2, with “DMF).” for “DMF). Fmoc groups were removed using a 20% (v/v) solution of piperidine in DMF.”
as §3, §4, §5, §6
min incubation at room temperature, the fluorescence anisotropies were measured using a plate reader (Eex= 485 nm, Eem=535 nm). […]

T2 sequence (P10747 19-220): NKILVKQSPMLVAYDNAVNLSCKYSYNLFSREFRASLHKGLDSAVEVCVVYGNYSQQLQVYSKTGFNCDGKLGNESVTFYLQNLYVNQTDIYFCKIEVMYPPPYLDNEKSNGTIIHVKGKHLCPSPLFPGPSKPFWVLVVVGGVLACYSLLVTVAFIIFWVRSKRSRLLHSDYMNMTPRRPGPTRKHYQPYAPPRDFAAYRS
T1 sequence (Q14145 321-609 limits assumed, species assumed): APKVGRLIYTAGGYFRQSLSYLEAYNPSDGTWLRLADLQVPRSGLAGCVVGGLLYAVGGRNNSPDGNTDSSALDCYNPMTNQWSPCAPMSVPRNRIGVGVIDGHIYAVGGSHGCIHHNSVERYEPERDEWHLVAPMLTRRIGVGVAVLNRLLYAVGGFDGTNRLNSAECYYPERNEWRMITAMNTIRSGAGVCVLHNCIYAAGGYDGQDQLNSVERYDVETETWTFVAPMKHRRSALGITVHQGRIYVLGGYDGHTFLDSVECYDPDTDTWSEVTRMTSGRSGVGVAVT

CC[C@H](C)[C@@H]1NC(=O)[C@H](CCC(=O)O)NC(=O)[C@@H]2CSSC[C@H](NC(=O)[C@H](CO)NC(=O)[C@H](CO)NC(=O)[C@H](C(C)C)NC(=O)[C@H](CCC(=O)O)NC(=O)[C@H](CCSC)NC(=O)[C@@H]3CSSC[C@H](NC(=O)[C@H](CCCNC(=N)N)NC(=O)[C@H](CO)NC(=O)CNC1=O)C(=O)N1CCC[C@H]1C(=O)N1CCC[C@H]1C(=O)N[C@H](C(N)=O)CSSC[C@H](NC(=O)[C@@H](N)Cc1c[nH]c4ccccc14)C(=O)N1CCC[C@H]1C(=O)N1CCC[C@H]1C(=O)N3)C(=O)N[C@@H](CC(=O)O)C(=O)N[C@@H](CCC(=O)O)C(=O)N[C@@H](CCC(=O)O)C(=O)N[C@@H]([C@@H](C)O)C(=O)NCC(=O)N[C@@H](CCC(=O)O)C(=O)N2 [drp6] (H-WCPPCMEVSSCDEETGECEIGSRCPPC-NH2; disulfide 2-27, 5-24, 11-18)
Kd (Keap1): 47 nM

H-GCPPCESCHSGESTFWCYWEALCPPC-NH2 (also: bicyclic or more (positions not given here)) [drp2-a, oxidized product of drp2]
affinity to MDM2 (in words) (MDM2): subnanomolar affinity

H-SCPPCHGRPTCTKPGDNATPEKLAKYQACWELLTCPPC-OH (also: bicyclic or more (positions not given here)) [drp4, drp1 grafted with loop-α-helix fold of PPα-Tyr; recombinantly produced in E. coli as SUMO fusion]
thermal stability of the 3D structure (CD signal) [1]: extremely stable to thermal treatment

{FITC}-[βAla]GCPPCPREHELVAVPCEGLNNCWFVEACPPC-NH2 (cysteine pairing not given here) [reduced drp8, reduced form of fluorescein-labeled drp8]
binding of reduced labeled peptide to CD28 (in words) (CD28): negligible

— publication PMC9258321, “Structure-guided design of CPPC-paired disulfide-rich peptide libraries for ligand and drug discovery” (Chemical Science, 2022)
